Measurements published in paper PMC9217908, “Screening of commonly prescribed drugs for effects on the CAT1-mediated transport of L-arginine and arginine derivatives” (Amino Acids, 2022).
Read-outs that look alike come from different tables or passages of the source.

Legend:
Assay in all cases: cell-based
[1] = biological target: T1, CAT1 (cationic amino acid transporter 1, CAT1/SLC7A1) (Homo sapiens, UniProt P30825); set-up: species or system HEK-CAT1 (HEK293 stably transfected); Inhibition of net CAT1-mediated [3H]-L-homoarginine (1 uM) uptake, 2.5 min, scintillation counting, vector control subtracted; conditions: HEK293, L-homoarginine 1 uM as substrate; for inhibition at 20 µM: read-out: % Inhibition of L-homoarginine uptake at 20 µM; for inhibition at 200 µM: read-out: % Inhibition of L-homoarginine uptake at 200 µM
T1 construct: full-length human transporter stably transfected in HEK cells (HEK-CAT1); net uptake against HEK-VC vector control cells
T1 sequence (P30825 whole entry): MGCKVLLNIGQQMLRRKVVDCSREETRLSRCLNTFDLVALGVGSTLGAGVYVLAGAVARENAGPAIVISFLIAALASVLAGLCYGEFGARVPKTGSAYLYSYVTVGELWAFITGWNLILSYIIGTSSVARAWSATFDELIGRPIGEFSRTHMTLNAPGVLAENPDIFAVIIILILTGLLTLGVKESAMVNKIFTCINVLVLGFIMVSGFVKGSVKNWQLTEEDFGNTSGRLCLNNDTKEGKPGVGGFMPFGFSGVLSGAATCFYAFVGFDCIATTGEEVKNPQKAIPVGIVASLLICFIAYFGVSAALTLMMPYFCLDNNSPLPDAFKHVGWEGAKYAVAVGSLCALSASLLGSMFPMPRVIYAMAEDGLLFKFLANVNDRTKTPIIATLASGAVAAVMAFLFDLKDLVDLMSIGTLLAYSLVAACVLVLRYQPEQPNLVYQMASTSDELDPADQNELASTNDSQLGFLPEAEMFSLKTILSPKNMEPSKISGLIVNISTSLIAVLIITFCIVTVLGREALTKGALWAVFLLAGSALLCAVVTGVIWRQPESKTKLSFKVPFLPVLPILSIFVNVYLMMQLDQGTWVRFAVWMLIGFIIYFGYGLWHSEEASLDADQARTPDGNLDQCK
Procedure, shortened: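 HEK-CAT1 cells with HEK-VC vector controls; [3H]-L-homoarginine (1 μM) uptake over 2.5 min with or without test compound at 20 µM or 200 µM. Net CAT1 uptake (CAT1 minus VC) gives inhibition (%) = 100 – (V/V0 × 100). Negative values mean stimulated uptake; n = 6–9 from at least two independent experiments.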

[2] = biological target: T1, CAT1 (cationic amino acid transporter 1, CAT1/SLC7A1); set-up: species or system HEK-CAT1 (HEK293 stably transfected); Inhibition of net CAT1-mediated [3H]-L-arginine (100 uM) uptake, 5 min, scintillation counting, vector control subtracted; conditions: HEK293, L-arginine 100 uM as substrate; for inhibition at 20 µM: read-out: % Inhibition of L-arginine uptake at 20 µM; for inhibition at 200 µM: read-out: % Inhibition of L-arginine uptake at 200 µM
Procedure, shortened: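 HEK-CAT1 and vector-control HEK-VC cells took up [3H]-L-arginine (100 μM) for 5 min, with or without drug at 20 or 200 µM; [3H]-L-homoarginine or [3H]-ADMA uptake ran 2.5 min. Net uptake is CAT1 minus VC cells, and inhibition (%) = 100 − (V/V0 × 100). Negative values mean stimulated uptake.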

[3] = biological target: T1, CAT1 (cationic amino acid transporter 1, CAT1/SLC7A1); set-up: species or system HEK-CAT1 (HEK293 stably transfected); Inhibition of net CAT1-mediated [3H]-ADMA (1 uM) uptake, 2.5 min, scintillation counting, vector control subtracted; conditions: HEK293, ADMA 1 uM as substrate; for inhibition at 20 µM: read-out: % Inhibition of ADMA uptake at 20 µM; for inhibition at 200 µM: read-out: % Inhibition of ADMA uptake at 200 µM
Procedure, shortened: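 HEK cells expressing CAT1 and vector-control cells took up [^3H]-L-arginine for 5 min, or [^3H]-L-homoarginine or [^3H]-ADMA (1 μM) for 2.5 min, with or without drug at 20 or 200 µM. Net CAT1 uptake was CAT1 cells minus control cells, and inhibition (%) = 100 − V/V0×100. Negative values mean stimulation; n = 6–9.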

Compound	inhibition at 20 µM [1]	inhibition at 200 µM [1]	inhibition at 20 µM [2]	inhibition at 200 µM [2]	inhibition at 20 µM [3]	inhibition at 200 µM [3]
c1c[nH]cn1 [Imidazole]	-3.2 ± 2%	-10.8 ± 1.6%	-6.3 ± 5.9%	-8.5 ± 1.5%	-4.7 ± 2.1%	20.7 ± 14.1%
CN(C)CCCN1c2ccccc2CCc2ccccc21 [Imipramine]	-3.1 ± 1.6%	15 ± 2.1%	0.08 ± 4.8%	22.6 ± 5.7%	-4.3 ± 2.1%	14.1 ± 4.1%
CN1CCC(=C2c3ccccc3CC(=O)c3sccc32)CC1 [Ketotifen]	7 ± 4.2%	10.9 ± 2.6%	23.9 ± 0.8%	9.9 ± 8.2%	6.4 ± 4.4%	1.4 ± 9.6%
Nc1ccn([C@@H]2CS[C@H](CO)O2)c(=O)n1 [Lamivudine]	-3.4 ± 0.3%	-3.1 ± 1.4%	27.4 ± 4.6%	-3.9 ± 4.6%	-5.3 ± 4%	22.9 ± 4.9%
c1ccc([C@H]2CN3CCSC3=N2)cc1 [Levamisole]	19.6 ± 11.8%	-15.9 ± 3.8%	-18.4 ± 6.9%	-17.2 ± 5.1%	18.9 ± 12.5%	-34.3 ± 2.4%
N[C@@H](Cc1ccc(O)c(O)c1)C(=O)O [Levodopa]	8.2 ± 3%	30.4 ± 0.2%	8.1 ± 3.1%	31.4 ± 0.6%	28.1 ± 0.9%	-6 ± 0.5%
NCCCC[C@H](N[C@@H](CCc1ccccc1)C(=O)O)C(=O)N1CCC[C@H]1C(=O)O [Lisinopril]	6.4 ± 3.1%	-11.4 ± 3.8%	4.6 ± 3.8%	-12.6 ± 5%	1.6 ± 1.9%	15.7 ± 0.8%
CN(C)C(=O)C(CCN1CCC(O)(c2ccc(Cl)cc2)CC1)(c1ccccc1)c1ccccc1 [Loperamide]	18.9 ± 0.2%	-2.7 ± 3.9%	16.9 ± 2.3%	-3.6 ± 2.1%	17.6 ± 1.6%	1.4 ± 2.1%
CCCCc1nc(Cl)c(CO)n1Cc1ccc(-c2ccccc2-c2nnn[nH]2)cc1 [Losartan]	11 ± 0.5%	-27.1 ± 2%	13.5 ± 1.7%	-34.8 ± 1.4%	7 ± 3.8%	12.9 ± 4.1%
CC12CC3CC(C)(C1)CC(N)(C3)C2 [Memantine]	-3.9 ± 3.4%	-16.6 ± 0.8%	-3.2 ± 3.9%	-21.7 ± 5.1%	14.8 ± 2.6%	-9.6 ± 1.8%
C[C@@H](O)[C@H]1C(=O)N2C(C(=O)O)=C(S[C@@H]3CN[C@H](C(=O)N(C)C)C3)[C@H](C)[C@H]12 [Meropenem]	-19.3 ± 9.1%	-13.6 ± 4.6%	-19.1 ± 9.3%	-13.4 ± 4.9%	0.1 ± 3.2%	12.1 ± 5.1%
CN(C)C(=N)NC(=N)N [Metformin]	-20.4 ± 13.7%	-18.8 ± 1.3%	-20.7 ± 14.1%	-23.1 ± 1.4%	-8 ± 4.3%	-8.4 ± 3.1%
CN(Cc1cnc2nc(N)nc(N)c2n1)c1ccc(C(=O)N[C@@H](CCC(=O)O)C(=O)O)cc1 [Methotrexate]	19.5 ± 1%	-6.8 ± 0.9%	22.3 ± 0.8%	-7.1 ± 2.1%	5.4 ± 4.3%	9.9 ± 4.5%
COc1ccc(OC)c(C(O)C(C)N)c1 (stereo not drawn) [Methoxamine]	0.7 ± 11.9%	-23.9 ± 2.1%	24.5 ± 10.5%	-23.9 ± 3.7%	0.7 ± 11.9%	1.8 ± 0.9%
CCN(CC)CCNC(=O)c1cc(Cl)c(N)cc1OC [Metoclopramide]	-6.3 ± 1.4%	1.4 ± 3.2%	7.5 ± 2.1%	2.5 ± 3.5%	-3.2 ± 2.1%	4.2 ± 9.4%
COCCc1ccc(OCC(O)CNC(C)C)cc1 (stereo not drawn) [Metoprolol]	-21.4 ± 3.7%	0.3 ± 2.5%	8.1 ± 6.7%	1.3 ± 3.8%	-15.1 ± 7.1%	19.8 ± 4.1%
Cc1ncc([N+](=O)[O-])n1CCO [Metronidazole]	-4.7 ± 2%	0.8 ± 2.2%	7.7 ± 1.9%	2.6 ± 3.7%	-3.1 ± 2%	-16.6 ± 0.4%
CC#C[C@]1(O)CC[C@H]2[C@@H]3CCC4=CC(=O)CCC4=C3[C@@H](c3ccc(N(C)C)cc3)C[C@@]21C [Mifepristone]	8.5 ± 11.1%	-15 ± 1.6%	24.6 ± 0.6%	-19.9 ± 4.4%	8.1 ± 11.4%	5.6 ± 3.7%
CN1CCOC(c2ccccc2)c2ccccc2C1 (stereo not drawn) [Nefopam]	-8.3 ± 1.6%	-11.6 ± 3.2%	-17.2 ± 10.5%	-13.9 ± 5.1%	-3.2 ± 0.4%	32.6 ± 3.7%
CCOC(=O)C1=C(C)NC(C)=C(C(=O)OC)C1c1cccc([N+](=O)[O-])c1 (stereo not drawn) [Nitrendipine]	3.4 ± 8.7%	15.2 ± 4.5%	-1.5 ± 7.1%	26.1 ± 8.1%	3.2 ± 9.5%	30.4 ± 0.8%
C#C[C@]1(O)CC[C@H]2[C@@H]3CCC4=CC(=O)CC[C@@H]4[C@H]3CC[C@@]21C [Norethindrone]	23.5 ± 4%	-12.8 ± 9.6%	26.9 ± 5%	-19.7 ± 3.3%	-3.8 ± 1.6%	-3.1 ± 0.5%
CCCc1nc(C(C)(C)O)c(C(=O)O)n1Cc1ccc(-c2ccccc2-c2nnn[nH]2)cc1 [Olmesartan]	3 ± 2.3%	-13.7 ± 5.1%	2.8 ± 2.3%	-32.8 ± 1.4%	-13.2 ± 1.9%	-7.7 ± 3.5%
Cc1nccn1CC1CCc2c(c3ccccc3n2C)C1=O (stereo not drawn) [Ondansetron]	-0.5 ± 5.9%	-8.3 ± 1.6%	8.8 ± 7.9%	-5.7 ± 4.1%	-0.4 ± 5.9%	10.1 ± 2.3%
OCCN1CCN(CCCN2c3ccccc3C=Cc3ccccc32)CC1 [Opipramol]	-16.8 ± 3.4%	29.5 ± 2.7%	22.3 ± 1.8%	29.2 ± 2.7%	-13.4 ± 3.7%	-1 ± 4.5%
COc1ccnc(C[S+]([O-])c2nc3cc(OC(F)F)ccc3[nH]2)c1OC (stereo not drawn) [Pantoprazole]	15.2 ± 1.8%	12.5 ± 0.3%	16.7 ± 2.1%	10.5 ± 0.9%	-4.5 ± 1.7%	-9.9 ± 3.1%
CC[C@H](C)C(=O)O[C@H]1C[C@H](O)C=C2C=C[C@H](C)[C@H](CC[C@@H](O)C[C@@H](O)CC(=O)O)[C@H]21 [Pravastatin]	-0.4 ± 3.8%	-10.1 ± 1.4%	0.2 ± 4.4%	4.1 ± 2.6%	-18.5 ± 3.3%	-4.4 ± 9.6%
C[C@]12C=CC(=O)C=C1CC[C@@H]1[C@@H]2[C@@H](O)C[C@@]2(C)[C@H]1CC[C@]2(O)C(=O)CO [Prednisolone]	-11.1 ± 5.8%	-16.5 ± 2.4%	12.5 ± 4.1%	-21.4 ± 1.3%	-3.3 ± 6.9%	13.4 ± 4.7%
C[C@]12C=CC(=O)C=C1CC[C@@H]1[C@@H]2C(=O)C[C@@]2(C)[C@H]1CC[C@]2(O)C(=O)CO [Prednisone]	12.5 ± 2.7%	13.2 ± 2.6%	13.9 ± 3.4%	19.1 ± 0.8%	-33.3 ± 2.3%	-16.9 ± 2.24%
CCCN(CCC)S(=O)(=O)c1ccc(C(=O)O)cc1 [Probenecid]	-2.9 ± 2.8%	-1.1 ± 2.2%	-2.6 ± 3.2%	0.4 ± 2.1%	-24.9 ± 8.3%	-17.5 ± 1.8%
CC(CN1c2ccccc2Sc2ccccc21)N(C)C (stereo not drawn) [Promethazine]	4.3 ± 2%	14 ± 0.9%	-1.3 ± 7.1%	14.4 ± 6%	4.2 ± 2%	-9.2 ± 1.2%
